Laboratory results as given in BindingDB's records for doi:10.7270/Q2B56H72 (Nmmlsc, 2011).

Target: T1, Beta-adrenergic receptor kinase 1 (Homo sapiens, UniProt P25098)
T1 sequence (P25098 whole entry): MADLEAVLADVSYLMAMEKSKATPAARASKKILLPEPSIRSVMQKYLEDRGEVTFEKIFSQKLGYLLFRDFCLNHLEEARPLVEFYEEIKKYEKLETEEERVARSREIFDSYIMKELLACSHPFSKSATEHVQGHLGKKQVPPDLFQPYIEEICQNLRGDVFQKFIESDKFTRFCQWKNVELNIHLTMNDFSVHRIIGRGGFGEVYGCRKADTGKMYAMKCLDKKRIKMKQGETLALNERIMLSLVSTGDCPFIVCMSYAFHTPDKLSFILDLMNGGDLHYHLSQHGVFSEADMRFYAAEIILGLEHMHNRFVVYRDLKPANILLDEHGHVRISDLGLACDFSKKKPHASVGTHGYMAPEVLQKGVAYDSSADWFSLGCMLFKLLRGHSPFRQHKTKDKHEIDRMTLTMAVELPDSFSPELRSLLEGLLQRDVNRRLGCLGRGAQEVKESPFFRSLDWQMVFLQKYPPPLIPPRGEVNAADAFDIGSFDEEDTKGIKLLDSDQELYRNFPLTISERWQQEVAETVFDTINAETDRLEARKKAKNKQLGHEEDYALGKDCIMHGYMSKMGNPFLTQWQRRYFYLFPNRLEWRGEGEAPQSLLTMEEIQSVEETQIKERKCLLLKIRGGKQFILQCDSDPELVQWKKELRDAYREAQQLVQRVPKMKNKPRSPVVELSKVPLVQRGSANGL
Experiment: aptamer displacement from bead-bound GRK2 – biochemical, cherry pick 1, bead flow cytometry, dose response (AID 504500)

EC50: 14.8 µM
Structure (SMILES): C=c1[nH]n(-c2cccc(C(=O)O)c2)c(=O)c1=CC=Cc1ccco1 [SMR000113614]
